According to patent US20220023258A1, “METHODS OF TREATING CONDITIONS RELATED TO THE S1P1 RECEPTOR” (Arena Pharmaceuticals, Inc., priority 2018, published 2022):

Key:
male Sprague-Dawley rats = conditions: see WO2010/011316, Example 9; cited from earlier work
[1] = test system: peripheral blood lymphocyte (PBL) counts; assay: Phase 1 single dose study: peripheral blood lymphocyte counts; type: in vivo, human
Protocol: Compound 1 was administered as the L-arginine salt.

subjects = assay: Phase 1 single dose study: safety and tolerability
Protocol: A phase 1 study with Compound 1 was conducted with single dosing at 0.1 mg, 0.35 mg, 1 mg, 3 mg, and 5 mg. Compound 1 was administered as the L-arginine salt.

SMILES: O=C(O)C[C@H]1CCc2c1[nH]c1ccc(OCc3ccc(C4CCCC4)c(C(F)(F)F)c3)cc21 [Compound 1, (R)-2-(7-(4-cyclopentyl-3-(trifluoromethyl)benzyloxy)-1,2,3,4-tetrahydrocyclopenta[b]indol-3-yl)acetic acid]
- bradycardia (male Sprague-Dawley rats): no or substantially no bradycardia
- PBL counts reduced ([1]; single dose 3 mg): ~40%
- PBL counts reduced ([1]; single dose 5 mg): ~55%
- absolute number of peripheral blood B cells, T cells, NK cells, and all T cell subsets except TEM cells ([1]; single dose 3 and 5 mg): dose responsive decline
- persistence of PBL nadir ([1]; single dosing): 24 h
- time after dosing by which total PBL counts were reduced ([1]; single dosing): 2 to 4 h
- time of nadir of total PBL counts ([1]; single dosing): ≤ 8 h
- recovery of PBL counts to baseline ([1]; single dosing, after nadir period): 4 days
- other safety issues (vital signs, ECGs, pulmonary function tests, ophthalmoscopy, clinical laboratory tests) (subjects; in vivo): no other clinically significant safety issues
- maximum tolerated dose (subjects; single dosing): 3 mg
- deaths or serious adverse events (subjects; single dosing 0.1-5 mg): no deaths or serious adverse events
